From patent US20250179103A1, “6-OXODECAHYDROPYRROLO[1,2-A][1,5]DIAZOCINE AND 6-OXODECAHYDRO-4H-PYRROLO[2,1-D][1,5]THIAZOCINE DERIVATIVES AS STAT3 AND STAT6 MODULATORS FOR THE TREATMENT OF CANCER AND INFLAMMATORY CONDITIONS” (Recludix Pharma, Inc., priority 2022, published 2025)

Key:
[1] = target: T1, Recombinant STAT3 protein (STAT3(G127-I722)) (Homo sapiens, UniProt P40763); test: STAT3 Fluorescence Polarization (FP) Assay; assay type: binding; conditions: STAT3(G127-I722) 25 nM, probe 5-FAM-GpYLPQTV-NH2 2 nM, 45-minute incubation
T1 construct: Recombinant STAT3 protein (STAT3(G127-I722))
Outline: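 STAT3(G127-I722), 25 nM, was mixed with 2 nM 5-FAM-GpYLPQTV-NH2 probe in HEPES pH 7.4 buffer with 1% DMSO and serially diluted compound. FP (mP) was read after 45 min at room temperature. IC50 came from nonlinear regression.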

[2] = target: T2, Recombinant STAT6 protein (STAT6(W123-T658)) (Homo sapiens, UniProt P42226); test: STAT6 Fluorescence Polarization (FP) Assay; assay type: binding; conditions: STAT6(W123-T658) 250 nM, probe 5-FAM-ApYKPFQDLI-NH2 2 nM, 45-minute incubation
T2 construct: Recombinant STAT6 protein (STAT6(W123-T658))
T2 sequence (P42226 123-658): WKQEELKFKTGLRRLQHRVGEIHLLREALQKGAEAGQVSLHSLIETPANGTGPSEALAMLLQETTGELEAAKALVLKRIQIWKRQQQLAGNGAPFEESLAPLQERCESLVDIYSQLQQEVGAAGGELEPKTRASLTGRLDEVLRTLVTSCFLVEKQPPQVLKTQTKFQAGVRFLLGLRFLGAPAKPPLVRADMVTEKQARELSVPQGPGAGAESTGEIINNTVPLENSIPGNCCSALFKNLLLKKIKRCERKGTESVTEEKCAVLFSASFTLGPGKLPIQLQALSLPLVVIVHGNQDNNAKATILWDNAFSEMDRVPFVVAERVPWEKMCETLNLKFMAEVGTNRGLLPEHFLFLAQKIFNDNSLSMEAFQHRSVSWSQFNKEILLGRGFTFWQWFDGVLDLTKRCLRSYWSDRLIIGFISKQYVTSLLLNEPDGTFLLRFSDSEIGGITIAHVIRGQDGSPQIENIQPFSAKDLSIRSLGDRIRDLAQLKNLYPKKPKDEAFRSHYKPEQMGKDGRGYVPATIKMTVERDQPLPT
Outline: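 Displacement of a fluorescent phosphotyrosine peptide (5-FAM-ApYKPFQDLI-NH2, 2 nM) from STAT6(W123-T658) (250 nM), 1% DMSO, pH 7.4 HEPES buffer. After 45 min at room temperature, polarization (mP) was plotted versus log compound concentration and fitted by nonlinear regression to give IC50.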

T1 sequence (P40763 127-722): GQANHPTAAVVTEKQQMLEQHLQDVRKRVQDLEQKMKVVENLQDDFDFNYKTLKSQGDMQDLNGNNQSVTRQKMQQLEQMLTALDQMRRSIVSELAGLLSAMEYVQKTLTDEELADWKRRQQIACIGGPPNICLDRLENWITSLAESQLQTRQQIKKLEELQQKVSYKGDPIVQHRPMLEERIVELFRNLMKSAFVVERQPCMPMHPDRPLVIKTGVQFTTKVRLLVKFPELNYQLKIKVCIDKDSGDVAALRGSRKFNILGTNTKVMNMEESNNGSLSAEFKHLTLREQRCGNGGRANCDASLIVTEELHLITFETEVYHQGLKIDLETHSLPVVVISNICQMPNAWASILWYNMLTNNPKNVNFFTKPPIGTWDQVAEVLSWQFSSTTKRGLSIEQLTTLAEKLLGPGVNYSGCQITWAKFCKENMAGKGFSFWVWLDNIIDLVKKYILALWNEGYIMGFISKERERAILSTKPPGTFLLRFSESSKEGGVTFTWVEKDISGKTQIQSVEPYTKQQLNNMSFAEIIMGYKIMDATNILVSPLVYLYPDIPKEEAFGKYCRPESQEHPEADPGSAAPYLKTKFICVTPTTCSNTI

Row | SMILES | IC50 [1] [µM] | IC50 [2] [µM]
1 | Cc1ccc2onc(C(=O)N3CC[C@H]4CC[C@@H](C(=O)N5CCN(c6nsc7ccccc67)CC5)N4C(=O)[C@@H](NC(=O)c4ccc5ccc(C(F)P(=O)(O)O)cc5c4)C3)c2c1 (stereo partly drawn) [Compound 369, ((7-(((5S,8S,10aR)-8-(4-(benzo[d]isothiazol-3-yl)piperazine-1-carbonyl)-3-(5-methylbenzo[d]isoxazole-3-carbonyl)-6-oxodecahydropyrrolo [1,2-a][1,5]diazocin-5-yl)carbamoyl)naphthalen-2-yl)fluoromethyl) phosphonic acid] | 1 to 10 | ≤ 0.3
2 | Cc1ccc2onc(C(=O)N3CC[C@H]4CC[C@@H](C(=O)N5CCOC[C@@H]5c5ccccc5)N4C(=O)[C@@H](NC(=O)c4ccc5ccc(C(F)P(=O)(O)O)cc5c4)C3)c2c1 (stereo partly drawn) [Compound 370, (fluoro(7-(((5S,8S, 10aR)-3-(5-methylbenzo[d]isoxazole-3-carbonyl)-6-oxo-((S)-3-phenylmorpholine-4-carbonyl)decahydro-pyrrolo[1,2-a] [1,5]diazocin-5-yl)carbamoyl)naphthalen-2-yl)methyl)phosphonic acid] | > 10 | ≤ 0.3
3 | Cc1ccc2onc(C(=O)N3CC[C@H]4CC[C@@H](C(=O)N5CCOC[C@H]5c5ccccc5)N4C(=O)[C@@H](NC(=O)c4ccc5ccc(C(F)P(=O)(O)O)cc5c4)C3)c2c1 (stereo partly drawn) [Compound 371, (fluoro(7-(((5S,8S,10aR)-3-(5-methylbenzo[d]isoxazole-3-carbonyl)-6-oxo-8-((R)-3-phenylmorpholine-4-carbonyl)decahydro-pyrrolo[1,2-a][1,5]diazocin-5-yl)carbamoyl)naphthalen-2-yl)methyl)phosphonic acid] | > 10 | ≤ 0.3
4 | Cc1ccc2onc(C(=O)N3CC[C@H]4CC[C@@H](C(=O)N5C[C@@H]6C[C@H]5CO6)N4C(=O)[C@@H](NC(=O)c4ccc5ccc(C(F)P(=O)(O)O)cc5c4)C3)c2c1 (stereo partly drawn) [Compound 372, ((7-(((5S,8S,10aR)-8-((1S,4S)-2-oxa-5-azabicyclo[2.2.1]heptane-5-carbonyl)-3-(5-methylbenzo[d]isoxazole-3-carbonyl)-6-oxodecahydropyrrolo [1,2-a][1,5]diazocin-5-yl)carbamoyl)naphthalen-2-yl)fluoromethyl)phosphonic acid] | > 10 | ≤ 0.3
5 | CCc1ccc2onc(C(=O)N3CC[C@H]4CC[C@@H](C(=O)N5CCOCC56CC6)N4C(=O)[C@@H](NC(=O)c4ccc5ccc(C(F)P(=O)(O)O)cc5c4)C3)c2c1 (stereo partly drawn) [Compound 374, ((7-(((5S,8S,10aR)-3-(5-ethylbenzo[d]isoxazole-3-carbonyl)-6-oxo-8-(7-oxa-4-azaspiro[2.5]octane-4-carbonyl)decahydropyrrolo[1,2-a][1,5]diazocin-5-yl)carbamoyl)naphthalen-2-yl)fluoromethyl) phosphonic acid] | > 10 | ≤ 0.3
6 | Cc1ccc2onc(C(=O)N3CC[C@H]4CC[C@@H](C(=O)N5CC6CCC(C5)O6)N4C(=O)[C@@H](NC(=O)c4ccc5ccc([C@H](F)P(=O)(O)O)cc5c4)C3)c2c1 [Compound 377, ((1R)-(7-(((5S,8S,10aR)-8-(8-oxa-3-azabicyclo[3.2.1]octane-3-carbonyl)-3-(5-methylbenzo[d]isoxazole-3-carbonyl)-6-oxodecahydropyrrolo [1,2-a][1,5]diazocin-5-yl)carbamoyl)naphthalen-2-yl)fluoromethyl)phosphonic acid] | > 10 | ≤ 0.3
7 | Cc1ccc2onc(C(=O)N3CC[C@H]4CC[C@@H](C(=O)N5CCOCC5)N4C(=O)[C@@H](NC(=O)c4cc(C#N)c5ccc(CP(=O)(O)O)cc5c4)C3)c2c1 [Compound 378, ((5-cyano-7-(((5S,8S, 10aR)-3-(5-methylbenzo[d]isoxazole-3-carbonyl)-8-(morpholine-4-carbonyl)-6-oxodecahydropyrrolo [1,2-a][1,5]diazocin-5-yl)carbamoyl)naphthalen-2-yl)methyl) phosphonic acid] | > 10 | 0.3 to 3
8 | Cc1ccc2onc(C(=O)N3CC[C@H]4CC[C@@H](C(=O)N5CCOCC5)N4C(=O)[C@@H](NC(=O)c4ccc5c(F)cc(CP(=O)(O)O)cc5c4)C3)c2c1 [Compound 379, ((4-fluoro-7-(((5S,8S, 10aR)-3-(5-methylbenzo[d]isoxazole-3-carbonyl)-8-(morpholine-4-carbonyl)-6-oxodecahydropyrrolo [1,2-a][1,5]diazocin-5-yl)carbamoyl)naphthalen-2-yl)methyl)phosphonic acid] | > 10 | 0.3 to 3

Continued, values first:

Row | IC50 [1] [µM] | IC50 [2] [µM] | SMILES
9 | 1 to 10 | ≤ 0.3 | Cc1ccc2[nH]nc(C(=O)N3CC[C@H]4CC[C@@H](C(=O)N5CC(c6cc[nH]c(=O)c6)CC56CC6)N4C(=O)[C@@H](NC(=O)c4ccc5ccc(C(F)(F)P(=O)(O)O)cc5c4)C3)c2c1 (stereo partly drawn) [Compound 367, (difluoro(7-(((5S,8S, 10aR)-3-(5-methyl-1H-indazole-3-carbonyl)-6-oxo-8-(6-(2-oxo-1,2-dihydropyridin-4-yl)-4-azaspiro[2.4]heptane-4-carbonyl)decahydropyrrolo[1,2-a][1,5]diazocin-5-yl)carbamoyl)naphthalen-2-yl)methyl) phosphonic acid]
10 | > 10 | ≤ 0.3 | Cc1ccc2onc(C(=O)N3CC[C@H]4CC[C@@H](C(=O)N5CCN(S(C)(=O)=O)CC5)N4C(=O)[C@@H](NC(=O)c4ccc5ccc(C(F)P(=O)(O)O)cc5c4)C3)c2c1 (stereo partly drawn) [Compound 368, (fluoro(7-(((5S,8S,10aR)-3-(5-methylbenzo[d]isoxazole-3-carbonyl)-8-(4-(methylsulfonyl)piperazine-1-carbonyl)-6-oxodecahydropyrrolo [1,2-a][1,5]diazocin-5-yl)carbamoyl)naphthalen-2-yl)methyl)phosphonic acid]
11 | > 10 | ≤ 0.3 | Cc1ccc2onc(C(=O)N3CC[C@H]4CC[C@@H](C(=O)N5CCOC(Cc6ccccc6)C5)N4C(=O)[C@@H](NC(=O)c4ccc5ccc(C(F)P(=O)(O)O)cc5c4)C3)c2c1 (stereo partly drawn) [Compound 373, ((7-(((5S,8S,10aR)-8-(2-benzylmorpholine-4-carbonyl)-3-(5-methylbenzo[d]isoxazole-3-carbonyl)-6-oxodecahydropyrrolo [1,2-a][1,5]diazocin-5-yl)carbamoyl)naphthalen-2-yl)fluoromethyl) phosphonic acid]
12 | > 10 | 0.3 to 3 | Cc1ccc2onc(C(=O)N3CC[C@H]4CC[C@@H](C(=O)N5CCOCC5)N4C(=O)[C@@H](NC(=O)c4ccc5ncc(C(F)P(=O)(O)O)cc5c4)C3)c2c1 (stereo partly drawn) [Compound 376, (fluoro(6-(((5S,8S, 10aR)-3-(5-methylbenzo[d]isoxazole-3-carbonyl)-8-(morpholine-4-carbonyl)-6-oxodecahydropyrrolo [1,2-a][1,5]diazocin-5-yl)carbamoyl)quinolin-3-yl)methyl)phosphonic acid]
13 | > 10 | ≤ 0.3 | Cc1ccc2onc(C(=O)N3CC[C@H]4CC[C@@H](C(=O)N5C[C@@H](c6ccn(C)c(=O)c6)CC56CC6)N4C(=O)[C@@H](NC(=O)c4ccc5ccc([C@@H](F)P(=O)(O)O)cc5c4)C3)c2c1 [Compound 380, ((S)-fluoro(7-(((5S,8S, 10aR)-8-((R)-6-(1-methyl-2-oxo-1,2-dihydropyridin-4-yl)-4-azaspiro[2.4]heptane-4-carbonyl)-3-(5-methylbenzo[d]isoxazole-3-carbonyl)-6-oxodecahydropyrrolo [1,2-a][1,5]diazocin-5-yl)carbamoyl)naphthalen-2-yl)methyl)phosphonic acid]
